Test results: ChEMBL document CHEMBL1201862, “PubChem BioAssay data set” (2004)
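How tested: cells in 96-well plates exposed to compound for 48 hours at five concentrations. Here, GI50 denotes the concentration required for 50% inhibition of growth.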 Calls of active or inactive are those of the source. Rule as the data show it: active = GI50 up to about 1.1 µM and inactive = higher.

Assays:
Assay in all cases: NCI anticancer screen, dose series, 48 h
[1] = system: 786-0
[2] = system: A498
[3] = system: A549
[4] = system: ACHN
[5] = system: BT-549
[6] = system: CAKI-1
[7] = system: CCRF-CEM
[8] = system: COLO 205
[9] = system: DU-145
[10] = system: EKVX
[11] = system: HCC 2998
[12] = system: HCT-116
[13] = system: HCT-15
[14] = system: HL-60
[15] = system: HOP-62
[16] = system: HOP-92
[17] = system: HT-29
[18] = system: Hs-578T
[19] = system: IGROV-1
[20] = system: K562
[21] = system: KM12
[22] = system: LOX IMVI
[23] = system: MCF7
[24] = system: MDA-MB-231
[25] = system: MDA-MB-435
[26] = system: MDA-N
[27] = system: MOLT-4
[28] = system: Malme-3M
[29] = system: NCI-H226
[30] = system: NCI-H23
[31] = system: NCI-H460
[32] = system: NCI-H522
[33] = system: NCI/ADR-RES
[34] = system: OVCAR-3
[35] = system: OVCAR-4
[36] = system: OVCAR-5
[37] = system: OVCAR-8
[38] = system: PC-3
[39] = system: RPMI-8226
[40] = system: RXF 393
[41] = system: SF-268
[42] = system: SF-295
[43] = system: SF-539
[44] = system: SK-MEL-28
[45] = system: SK-MEL-2
[46] = system: SK-MEL-5
[47] = system: SK-OV-3
[48] = system: SN12C
[49] = system: SNB-19
[50] = system: SNB-75
[51] = system: SR
[52] = system: SW-620
[53] = system: T47D
[54] = system: TK-10
[55] = system: U-251
[56] = system: UACC-257
[57] = system: UACC-62
[58] = system: UO-31
[59] = system: M14

NNC(=O)CC(=O)Nc1ccc(Cl)cc1
GI50 [1]: > 100 µM (inactive) | GI50 [2]: > 100 µM (inactive) | GI50 [3]: > 100 µM (inactive) | GI50 [4]: 66.7 µM (inactive) | GI50 [5]: > 100 µM (inactive) | GI50 [6]: > 100 µM (inactive) | GI50 [7]: > 100 µM (inactive) | GI50 [8]: > 100 µM (inactive) | GI50 [9]: > 100 µM (inactive) | GI50 [10]: > 100 µM (inactive) | GI50 [11]: > 100 µM (inactive) | GI50 [12]: > 100 µM (inactive) | GI50 [13]: 34.7 µM | GI50 [14]: > 100 µM (inactive) | GI50 [15]: > 100 µM (inactive) | GI50 [16]: > 100 µM (inactive) | GI50 [17]: > 100 µM (inactive) | GI50 [18]: > 100 µM (inactive) | GI50 [19]: > 100 µM (inactive) | GI50 [20]: 48.6 µM (inactive) | GI50 [21]: > 100 µM (inactive) | GI50 [22]: 34.1 µM (inactive) | GI50 [23]: > 100 µM (inactive) | GI50 [24]: > 100 µM (inactive) | GI50 [25]: > 100 µM (inactive) | GI50 [26]: > 100 µM (inactive) | GI50 [27]: > 100 µM (inactive) | GI50 [28]: > 100 µM (inactive) | GI50 [29]: > 100 µM (inactive) | GI50 [30]: > 100 µM (inactive) | GI50 [31]: > 100 µM (inactive) | GI50 [32]: > 100 µM (inactive) | GI50 [33]: > 100 µM (inactive) | GI50 [34]: > 100 µM (inactive) | GI50 [35]: > 100 µM (inactive) | GI50 [36]: > 100 µM (inactive) | GI50 [37]: > 100 µM (inactive) | GI50 [38]: > 100 µM (inactive) | GI50 [39]: > 100 µM (inactive) | GI50 [40]: > 100 µM (inactive) | GI50 [41]: > 100 µM (inactive) | GI50 [42]: > 100 µM (inactive) | GI50 [43]: > 100 µM (inactive) | GI50 [44]: > 100 µM (inactive) | GI50 [45]: > 100 µM (inactive) | GI50 [46]: > 100 µM (inactive) | GI50 [47]: > 100 µM (inactive) | GI50 [48]: > 100 µM (inactive) | GI50 [49]: > 100 µM (inactive) | GI50 [50]: > 100 µM (inactive) | GI50 [51]: > 100 µM (inactive) | GI50 [52]: > 100 µM (inactive) | GI50 [53]: > 100 µM (inactive) | GI50 [54]: > 100 µM (inactive) | GI50 [55]: > 100 µM (inactive) | GI50 [56]: > 100 µM (inactive) | GI50 [57]: > 100 µM (inactive) | GI50 [58]: > 100 µM (inactive)

N#Cc1c(-c2ccc(Cl)cc2)cc(-c2ccc(Nc3ccnc4cc(C(F)(F)F)ccc34)cc2)[nH]c1=O
GI50 [1]: 12.4 µM (inactive) | GI50 [2]: > 51.8 µM (inactive) | GI50 [3]: > 100 µM (inactive) | GI50 [4]: > 100 µM (inactive) | GI50 [5]: 17.4 µM (inactive) | GI50 [6]: > 43.4 µM (inactive) | GI50 [7]: 3.7 µM (inactive) | GI50 [8]: 21 µM (inactive) | GI50 [9]: 22.9 µM (inactive) | GI50 [10]: > 100 µM (inactive) | GI50 [11]: > 100 µM (inactive) | GI50 [12]: 4.76 µM (inactive) | GI50 [13]: > 100 µM | GI50 [14]: 10.8 µM (inactive) | GI50 [15]: 23.6 µM (inactive) | GI50 [16]: 17.1 µM (inactive) | GI50 [17]: 7.13 µM (inactive) | GI50 [18]: 20 µM (inactive) | GI50 [19]: > 54.3 µM (inactive) | GI50 [20]: 3.52 µM (inactive) | GI50 [21]: 67.1 µM (inactive) | GI50 [22]: 2.94 µM (inactive) | GI50 [59]: 4.31 µM (inactive) | GI50 [23]: 4.79 µM (inactive) | GI50 [24]: 19.3 µM (inactive) | GI50 [25]: 3.33 µM (inactive) | GI50 [26]: 3.53 µM (inactive) | GI50 [27]: 4.05 µM (inactive) | GI50 [28]: 14.1 µM (inactive) | GI50 [29]: > 92.3 µM (inactive) | GI50 [30]: > 45 µM (inactive) | GI50 [31]: > 100 µM (inactive) | GI50 [32]: 50 µM (inactive) | GI50 [33]: > 100 µM (inactive) | GI50 [34]: 8.26 µM (inactive) | GI50 [35]: 8.41 µM (inactive) | GI50 [36]: > 40.5 µM (inactive) | GI50 [37]: 38.3 µM (inactive) | GI50 [38]: 69.2 µM (inactive) | GI50 [39]: 21.1 µM (inactive) | GI50 [40]: 8.93 µM (inactive) | GI50 [41]: > 66.4 µM (inactive) | GI50 [42]: 36.1 µM (inactive) | GI50 [43]: 6.65 µM (inactive) | GI50 [44]: 8.49 µM (inactive) | GI50 [45]: 57.4 µM (inactive) | GI50 [46]: 19.1 µM (inactive) | GI50 [47]: 28.1 µM (inactive) | GI50 [48]: 59.2 µM (inactive) | GI50 [49]: 9.73 µM (inactive) | GI50 [50]: 11.7 µM (inactive) | GI50 [51]: 2.72 µM (inactive) | GI50 [52]: 14 µM (inactive) | GI50 [53]: 4.79 µM (inactive) | GI50 [54]: 24.4 µM (inactive) | GI50 [55]: 2.63 µM (inactive) | GI50 [56]: 37.2 µM (inactive) | GI50 [57]: 21.9 µM (inactive)
